From US10112925B2, “Methods for the preparation of charged crosslinkers” (IMMUNOGEN, INC., priority 2010, dated 2018) come the findings set out here.

A short description of data set [1]: Hygroscopicity of solid forms of compound (V), qualitative comparison. Particulars: solid form; amorphous solid made according to US 20090274713 as comparator. The data set is classed as physicochemical. The source says:
In one embodiment, the invention is directed to new crystalline forms of the compound of formula (V), e.g., Crystalline Forms 1, 2a, 2b and 3 as described below.

A short description of data set [2]: Gravimetric vapour sorption (GVS) moisture sorption isotherm. The following applies: 25° C.; for weight gain, adsorption profile (GVS): between 40% RH and 90% RH; for weight loss, desorption profile (GVS): between 90% RH and 0% RH. The data set is classed as physicochemical. The procedure:
Sorption isotherms were obtained using a SMS DVS Intrinsic moisture sorption analyser, controlled by DVS Intrinsic Control software v1.0.0.30. The sample temperature was maintained at 25° C. by the instrument controls. The humidity was controlled by mixing streams of dry and wet nitrogen, with a total flow rate of 200 ml/min. The relative humidity was measured by a calibrated Rotronic probe (dynamic range of 1.0-100% RH), located near the sample. The weight change, (mass relaxation) of the sample as a function of % RH was constantly monitored by the microbalance (accuracy ±0.005 mg).
Typically 10 mg of sample was placed in a tared mesh stainless steel basket under ambient conditions. The sample was loaded and unloaded at 40% RH and 25° C. (typical room conditions). A moisture sorption isotherm was performed as outlined below (2 scans giving 1 complete cycle). The standard isotherm was performed at 25° C. at 10% RH intervals over a 0-90% RH range. Data analysis was undertaken in Microsoft Excel using DVS Analysis Suite v6.0.0.7.

With `O=C(ON1C(=O)CCC1=O)C(CCSSc1ccccn1)S(=O)(=O)O` (stereo not drawn) [Compound of formula (V), N-succinimidyl 4-(2′-pyridyldithio)-2-sulfobutanoate], the hygroscopicity result in data set [1] was “highly hygroscopic”.
In the case of `O=C(ON1C(=O)CCC1=O)C(CCSSc1ccccn1)S(=O)(=O)O` (stereo not drawn) [Crystalline Form 1, N-succinimidyl 4-(2′-pyridyldithio)-2-sulfobutanoate], in data set [2], the “weight gain, adsorption profile (GVS)” value amounted to 1.6% and the “weight loss, desorption profile (GVS)” value is 1.9%. The hygroscopicity entry in data set [1] was “significantly less hygroscopic than the amorphous solid”.
On to `O=C(ON1C(=O)CCC1=O)C(CCSSc1ccccn1)S(=O)(=O)O` (stereo not drawn) [Crystalline Form 2a, N-succinimidyl 4-(2′-pyridyldithio)-2-sulfobutanoate], for which, in data set [2], the “weight gain, adsorption profile (GVS)” value is 1.8% and the “weight loss, desorption profile (GVS)” value stood at 2.4%. Besides, the hygroscopicity result in data set [1] was “significantly less hygroscopic than the amorphous solid”.
Take `O=C(ON1C(=O)CCC1=O)C(CCSSc1ccccn1)S(=O)(=O)O` (stereo not drawn) [Crystalline Form 2b, N-succinimidyl 4-(2′-pyridyldithio)-2-sulfobutanoate]: the hygroscopicity result in data set [1] is “significantly less hygroscopic than the amorphous solid”.
As to `O=C(ON1C(=O)CCC1=O)C(CCSSc1ccccn1)S(=O)(=O)O` (stereo not drawn) [Crystalline Form 3, N-succinimidyl 4-(2′-pyridyldithio)-2-sulfobutanoate], the “weight gain, second adsorption profile (GVS)” value in data set [2] (between 0% RH and 40% RH) is 0.4%. For the same compound, in data set [2], the “weight gain, adsorption profile (GVS)” value was found to be 25% and the “weight loss, desorption profile (GVS)” value amounted to 29.4%. In addition, in data set [1], the hygroscopicity entry was “significantly less hygroscopic than the amorphous solid”.
